Values after ≈ are worked out from the molar mass of the structure shown. Read-outs that look alike come from different tables or passages of the source. Where a SMILES comes first, the peptide text is derived from it.
Legend:
[1] = test system: VS Enterococcus faecalis NCTC 775; test: Antibacterial activity assay (broth microdilution MIC); type: cell-based
Klebsiella pneumoniae M6 = type: cell-based
human red blood cells = test: Haemolysis assay; settings: red cells of human, 1 h
Protocol: Haemolysis assay. Haemolysis was tested by incubating titrations of AMPs in PBS with freshly collected human red blood cells for 1 hour at 37 C. Control wells were treated with 0.1% Triton-X-100 to ensure complete lysis, or PBS-only to represent no lysis. Samples were spun down to remove non-lysed cells and the OD^550 of the supernatant was measured using a Clariostar plate reader. The percentage of haemolysis was calculated as % haemolysis=(AP−AB)/(AC−AB)×100, where AP is the absorbance value for a known peptide concentration, AC is the absorbance of the 0.1% Triton-X-100 control, AB is the absorbance of the PBS control. Data presented are averages and standard error from three biological replicate experiments.
Methods: The natural AMP (termed AMP1) was modified to produce synthetic variants, AMPs 1a, 2a, 2b, 3a and 3b. Minimum inhibitory concentrations (MICs) were determined using the microbroth dilution assay with Mueller Hinton broth (MHB) or RPMI (with 5% FBS) and stability in serum was tested by conducting MICs in MHB containing 10% FBS. Synergy experiments were performed following a checkerboard protocol. Cytotoxicity was tested against HEK293 and HeLa immortalised human cell-lines using the XTT viability stain and by quantifying haemolysis of human red blood cells. Patch clamp analysis was performed using the Port-a-Patch® automated patch-clamp system on DPhPE/DPhPG (model for a Gram-negative plasma membrane) or DPhPG (Gram-positive) model membranes challenged with peptide. The murine lung infection model was performed using the agar bead model with Staphylococcus aureus strain NCTC 13616 (EMRSA-15).

HeLa = test: Cytotoxicity assay (XTT); type: cell-based, human; design: Toxicity HeLa: unit not given beside the values
Protocol: Cytotoxicity assay. HeLa and HEK293 cell lines were purchased from ECACC and cultured in Eagle's Minimum Essential Media (EMEM) containing glutamine, supplemented with 10% FBS and 1× non-essential amino acids (NEAA) at 37° C., 10% CO2. Cytotoxicity was measured by incubating starter cultures of cells for 24 hours in a 96 well plate, gently removing the supernatant and replacing it with dilutions of peptides and controls, incubating for a further 24 hours and then staining of the cells with the second generation tetrazolium dye, XTT. […]

[2] = test system: Acinetobacter baumannii AYE; type: cell-based; settings: AYE
[3] = test system: Klebsiella pneumoniae NCTC 13368; type: cell-based; settings: in µg/mL
[4] = test system: Escherichia coli NCTC 12923; type: cell-based; settings: EC12923
[5] = test system: EMR Staphylococcus aureus-16 (EMRSA-16); type: cell-based; settings: EMRSA16
[6] = test system: Acinetobacter baumannii ATCC 17978; type: cell-based; settings: in µg/mL; for MIC, Stability in serum (MH): Ab17978
[7] = medium and unit not given, in µg/mL
[8] = untitled table, medium/unit not given, values match RPMI of Table 2, in µg/mL

Compound: CC(C)C[C@@H](NC(=O)[C@@H](Cc1ccc(O)cc1)NC(=O)[C@@H](Cc1c[nH]cn1)NC(=O)[C@H](NC(=O)[C@@H](CC(C)C)NC(=O)[C@@H](C)NC(=O)[C@@H](C)NC(=O)[C@@H](CCCCN)NC(=O)CNC(=O)[C@H](NC(=O)[C@@H](Cc1c[nH]cn1)NC(=O)[C@@H](CCCCN)NC(=O)CNC(=O)[C@H](NC(=O)[C@@H](Cc1c[nH]cn1)NC(=O)[C@@H](C)NC(=O)[C@@H](C)NC(=O)[C@@H](CCCCN)NC(=O)[C@@H](CCCCN)NC(=O)[C@@H](Cc1ccccc1)NC(=O)[C@@H](Cc1ccccc1)NC(=O)[C@@H](CO)NC(=O)CNC(=O)[C@@H](Cc1c[nH]c2ccccc12)NC(=O)CN)C(C)C)C(C)C)[C@H](C)O)C(N)=O [D-pleurocidin] (HELM PEPTIDE1{G.[dW].G.[dS].[dF].[dF].[dK].[dK].[dA].[dA].[dH].[dV].G.[dK].[dH].[dV].G.[dK].[dA].[dA].[dL].[dT].[dH].[dY].[dL].[am]}$$$$V2.0; N-terminus assumed)
- MIC, Peptide concentration ([1]; Mueller-Hinton broth): 32 (NG) μg/ml
- MIC on initial panels ([1]; VSE775, medium and unit not given, in µg/mL): 32
- MIC (Klebsiella pneumoniae M6; (MH), in µg/mL): 4
- MIC (Klebsiella pneumoniae M6; (RPMI), in µg/mL): 4-8
- MIC, Stability in serum (MH) (Klebsiella pneumoniae M6; No serum): 4 µg/mL (≈ 1.48 µM)
- MIC, Stability in serum (MH) (Klebsiella pneumoniae M6; Serum (10% fetal bovine serum)): 4 µg/mL (≈ 1.48 µM)
- MIC on initial panels (Klebsiella pneumoniae M6; [7]): 4
- MIC (Klebsiella pneumoniae M6; [8]): 4-8
- Toxicity HC50, Peptide concentration (human red blood cells): >400 µg/mL
- Toxicity HeLa (HeLa; unit not given): 47.1 ± 2.1
- Toxicity HeLa (EC50), Peptide concentration (HeLa; value printed in parentheses): (47.1 ± 2.1) μg/ml
- MIC ([2]; (MH), in µg/mL): 1
- MIC ([2]; (RPMI), in µg/mL): 2
- MIC, Stability in serum (MH) ([2]; No serum): 2 µg/mL (≈ 0.738 µM)
- MIC, Stability in serum (MH) ([2]; Serum (10% fetal bovine serum)): 2 µg/mL (≈ 0.738 µM)
- MIC on initial panels [2, 7]: 1
- MIC [2, 8]: 2
- MIC, Stability in serum (MH) ([3]; KP13368, No serum): 4
- MIC, Stability in serum (MH) ([3]; KP13368, Serum (10% fetal bovine serum)): 4
- MIC on initial panels ([3]; KP13368, medium and unit not given): 4
- MIC ([3]; KP13368, untitled table, medium/unit not given, values match RPMI of Table 2): 8-16
- MIC ([3]; Klebsiella pneumoniae KP13368, (MH)): 4
- MIC ([3]; Klebsiella pneumoniae KP13368, (RPMI)): 8-16
- MIC ([4]; (MH), in µg/mL): 1
- MIC ([4]; (RPMI), in µg/mL): 2-4
- MIC, Stability in serum (MH) ([4]; No serum): 1 µg/mL (≈ 0.369 µM)
- MIC, Stability in serum (MH) ([4]; Serum (10% fetal bovine serum)): 0.5 µg/mL (≈ 0.184 µM)
- MIC on initial panels [4, 7]: 1
- MIC [4, 8]: 2-4
- MIC on initial panels [5, 7]: 16
- MIC ([5]; untitled table, medium/unit inferred, values match RPMI of Table 2): 1 µg/mL (≈ 0.369 µM)
- MIC ([6]; AB17978, (MH)): 1
- MIC ([6]; AB17978, (RPMI)): 8
- MIC on initial panels ([6]; AB17978, medium and unit not given): 1
- MIC ([6]; AB17978, untitled table, medium/unit not given, values match RPMI of Table 2): 8
- MIC, Stability in serum (MH) ([6]; No serum): 1
- MIC, Stability in serum (MH) ([6]; Serum (10% fetal bovine serum)): 0.5

Source: patent US20230047825A1, “ANTIMICROBIAL PEPTIDES” (priority 2019, published 2023)
